Data from PubChem BioAssay AID298 (DTP/NCI, 2004).
Several values for one entry are separate records, joined by “and”; a condition that tells them apart may be missing. Equal values may be shown once. Results filed as inconclusive are left out.

Test system: MX-1 breast xenograft, intrarenal, nude mice, tumor weight
Test: NCI In Vivo Anticancer Drug Screen. Data for tumor model Human Mammary Carcinoma MX-1 Xenograft (intrarenal inoculation) in NU/NU BALB/C (nude) mice
Conditions: endpoint: mean tumor weight change, higher = larger tumour
In short: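 Efficacy in vivo: tumor measurement or survival of treated animals divided by that of vehicle-dosed controls.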

[1] = dose: 300.0 mg/kg/injection, schedule: Q04DX003 (sc), vehicle: saline
[2] = dose: 150.0 mg/kg/injection, schedule: Q04DX003 (ip), vehicle: Klucel (hydroxypropylcellulose) (HPC)
[3] = dose: 200.0 mg/kg/injection, schedule: Q04DX003 (ip), vehicle: Klucel (hydroxypropylcellulose) (HPC)
[4] = dose: 400.0 mg/kg/injection, schedule: Q04DX003 (ip), vehicle: Klucel (hydroxypropylcellulose) (HPC)
[5] = dose: 100.0 mg/kg/injection, schedule: Q04DX003 (ip), vehicle: Klucel (hydroxypropylcellulose) (HPC)
[6] = dose: 600.0 mg/kg/injection, schedule: Q04DX003 (sc), vehicle: saline
[7] = dose: 1200.0 mg/kg/injection, schedule: Q04DX003 (sc), vehicle: saline
[8] = dose: 2400.0 mg/kg/injection, schedule: Q04DX003 (sc), vehicle: saline
[9] = dose: 150.0 mg/kg/injection, schedule: Q04DX003 (ip), vehicle: saline with Tween-80

For C=C(C)/C([O-])=N/[N+](C)(C)CC(O)CCCCCCCCCCCC (stereo not given), which T/C (dose: 5.0 mg/kg/injection, schedule: Q04DX003 (ip), vehicle: Klucel (hydroxypropylcellulose) (HPC)) is on record?
Its T/C is 76 % of control.

What about the T/C (dose: 10.0 mg/kg/injection, schedule: Q04DX003 (ip), vehicle: Klucel (hydroxypropylcellulose) (HPC)) of the same compound?
Its T/C is 111 % of control.

And the T/C (dose: 20.0 mg/kg/injection, schedule: Q04DX003 (ip), vehicle: Klucel (hydroxypropylcellulose) (HPC))?
Its T/C is 90 % of control and 103 % of control.

What about the T/C (dose: 40.0 mg/kg/injection, schedule: Q04DX003 (ip), vehicle: Klucel (hydroxypropylcellulose) (HPC)) of the same compound?
Its T/C is 78 % of control.

And the T/C (dose: 80.0 mg/kg/injection, schedule: Q04DX003 (ip), vehicle: Klucel (hydroxypropylcellulose) (HPC))?
The T/C was 102 % of control and 118 % of control.

What about the T/C (dose: 320.0 mg/kg/injection, schedule: Q04DX003 (ip), vehicle: Klucel (hydroxypropylcellulose) (HPC)) of the same compound?
The T/C was 85 % of control.

For CN(Cc1cnc2nc(N)nc(N)c2n1)c1ccc(C(=O)NC(CCC(=O)OC(C)(C)C)C(=O)O)cc1 (stereo not given), which T/C (dose: 25.0 mg/kg/injection, schedule: Q03HX015 (ip), vehicle: sodium bicarbonate) is on record?
The T/C was 62 % of control.

What about the T/C (dose: 50.0 mg/kg/injection, schedule: Q03HX015 (ip), vehicle: sodium bicarbonate) of the same compound?
The T/C was 110 % of control.

What about the T/C (dose: 100.0 mg/kg/injection, schedule: Q03HX015 (ip), vehicle: sodium bicarbonate) of the same compound?
Its T/C is 54 % of control.

And the T/C (dose: 200.0 mg/kg/injection, schedule: Q03HX015 (ip), vehicle: sodium bicarbonate)?
The T/C was 116 % of control.

How did the T/C (dose: 37.5 mg/kg/injection, schedule: Q04DX003 (sc), vehicle: saline) turn out when CN(CCN(C)C(=O)CCOS(C)(=O)=O)C(=O)CCOS(C)(=O)=O was run?
Its T/C is 7 % of control.

And the T/C (dose: 75.0 mg/kg/injection, schedule: Q04DX003 (sc), vehicle: saline)?
The T/C was -100 % of control.

And the T/C (dose: 150.0 mg/kg/injection, schedule: Q04DX003 (sc), vehicle: saline)?
The T/C was -100 % of control.

What about the T/C [1] of the same compound?
Its T/C is -44 % of control.

Which T/C [2] does the source give for O=C1CNC(=O)N1CN1CCOCC1 here?
The T/C was 83 % of control.

What about the T/C (dose: 300.0 mg/kg/injection, schedule: Q04DX003 (ip), vehicle: Klucel (hydroxypropylcellulose) (HPC)) of the same compound?
The T/C was 89 % of control.

And the T/C (dose: 600.0 mg/kg/injection, schedule: Q04DX003 (ip), vehicle: Klucel (hydroxypropylcellulose) (HPC))?
The T/C was 81 % of control.

How did the T/C (dose: 6.9 mg/kg/injection, schedule: Q01DX009 (ip), vehicle: water) turn out when Cc1c(-c2ccc(-c3ccccc3F)cc2)nc2ccc(F)cc2c1C(=O)O was run?
The T/C was 15 % of control and 19 % of control.

And the T/C (dose: 11.5 mg/kg/injection, schedule: Q01DX009 (ip), vehicle: water)?
The T/C was 8 % of control and 18 % of control.

And the T/C (dose: 19.2 mg/kg/injection, schedule: Q01DX009 (ip), vehicle: water)?
The T/C was 2 % of control and 12 % of control.

What about the T/C (dose: 32.0 mg/kg/injection, schedule: Q01DX009 (ip), vehicle: water) of the same compound?
Its T/C is 6 % of control and 9 % of control.

How did the T/C (dose: 75.0 mg/kg/injection, schedule: Q04DX003 (sc), vehicle: water) turn out when ClCC[N+]12CC[N+](CCCl)(CC1)C2 was run?
The T/C was 34 % of control.

And the T/C (dose: 100.0 mg/kg/injection, schedule: Q01DX010 (sc), vehicle: saline with Tween-80)?
Its T/C is 23 % of control and 27 % of control.

And the T/C (dose: 150.0 mg/kg/injection, schedule: Q04DX003 (sc), vehicle: water)?
The T/C was 18 % of control.

And the T/C (dose: 200.0 mg/kg/injection, schedule: Q01DX010 (sc), vehicle: saline with Tween-80)?
The T/C was 16 % of control and 19 % of control.

And the T/C (dose: 300.0 mg/kg/injection, schedule: Q04DX003 (sc), vehicle: water)?
The T/C was 3 % of control.

Which results are given for O=C1CN(CCN2CC(=O)N(CN3CCOCC3)C(=O)C2)CC(=O)N1CN1CCOCC1?
T/C (dose: 150.0 mg/kg/injection, schedule: Q04DX003 (ip), vehicle: water): 56 % of control; T/C (dose: 300.0 mg/kg/injection, schedule: Q04DX003 (ip), vehicle: water): 58 % of control

With COc1cc2c(oc(=O)c3cc(C)cc(OC)c32)c2c(C3OC(C)C(O)C(C)(O)C3O)ccc(O)c12 (stereo not given) as the compound, how does the T/C (dose: 12.5 mg/kg/injection, schedule: Q04DX003 (ip), vehicle: DMSO) read?
The T/C was 97 % of control and 106 % of control.

What about the T/C (dose: 50.0 mg/kg/injection, schedule: Q04DX003 (ip), vehicle: DMSO) of the same compound?
The T/C was 48 % of control and 63 % of control.

How did the T/C [2] turn out when CC1=C(C(N)=O)C(c2ccccc2)NC(=S)N1 (stereo not given) was run?
The T/C was 87 % of control.

Which T/C [3] does the source give for CNC(=S)SC1=NS(=O)(=O)c2ccccc2N1 here?
Its T/C is 179 % of control.

What about the T/C [4] of the same compound?
Its T/C is 165 % of control.

For CN1C2C=CC(=O)C1C1C(=O)N(c3ccccc3)C(=O)C12 (stereo not given), which T/C [5] is on record?
Its T/C is 105 % of control.

And the T/C [3]?
The T/C was 77 % of control.

Which T/C [1] does the source give for NC(N)=NOCC[C@@H](N)C(=O)O here?
The T/C was 87 % of control.

And the T/C [6]?
The T/C was 111 % of control.

What about the T/C [7] of the same compound?
Its T/C is 86 % of control.

What about the T/C [8] of the same compound?
The T/C was 77 % of control.

With CCOC(=O)c1c[nH]c2ccc3c(nc(C)n3C)c2c1=O as the compound, how does the T/C [5] read?
The T/C was 122 % of control.

And the T/C [3]?
Its T/C is 122 % of control.

What about the T/C [4] of the same compound?
The T/C was 94 % of control.

And the T/C (dose: 800.0 mg/kg/injection, schedule: Q04DX003 (ip), vehicle: Klucel (hydroxypropylcellulose) (HPC))?
Its T/C is 77 % of control.

For OCC1OC(n2cnc3c(=S)nc[nH]c32)C(O)C1O (stereo not given), which T/C [1] is on record?
The T/C was 86 % of control.

What about the T/C [6] of the same compound?
The T/C was 58 % of control.

And the T/C [7]?
Its T/C is 59 % of control and 75 % of control.

And the T/C (dose: 1600.0 mg/kg/injection, schedule: Q04DX003 (sc), vehicle: saline)?
The T/C was 49 % of control.

And the T/C (dose: 2000.0 mg/kg/injection, schedule: Q04DX003 (sc), vehicle: saline)?
The T/C was 65 % of control.

What about the T/C [8] of the same compound?
The T/C was 23 % of control and 39 % of control.

Which T/C (dose: 75.0 mg/kg/injection, schedule: Q04DX003 (ip), vehicle: saline) does the source give for OCC(O)C(O)C(O)C(O)CO (stereo not given) here?
The T/C was 75 % of control.

What about the T/C (dose: 150.0 mg/kg/injection, schedule: Q04DX003 (ip), vehicle: saline) of the same compound?
Its T/C is 103 % of control.

And the T/C (dose: 300.0 mg/kg/injection, schedule: Q04DX003 (ip), vehicle: saline)?
Its T/C is 91 % of control.

And the T/C (dose: 600.0 mg/kg/injection, schedule: Q04DX003 (ip), vehicle: saline)?
The T/C was 94 % of control.

And the T/C (dose: 1200.0 mg/kg/injection, schedule: Q04DX003 (ip), vehicle: saline)?
The T/C was 70 % of control.

Which T/C [9] does the source give for CCOC(=O)C1=C(C)O/C(=C/c2cccc(Cl)c2)C1=O here?
Its T/C is 62 % of control.

What does the source list for Nc1ccn(C2OC(CO)C(O)C2O)c(=O)n1 (stereo not given)?
T/C (dose: 500.0 mg/kg/injection, schedule: Q04DX003 (sc), vehicle: saline): 57 % of control; T/C (dose: 1000.0 mg/kg/injection, schedule: Q04DX003 (sc), vehicle: saline): 68 % of control

With C[C@H]1C[C@@H]2[C@H]([C@@H](O)C[C@@]3(C)[C@H]2CC[C@]3(O)C(=O)CO)[C@@]2(C)C=CC(=O)C=C12 as the compound, how does the T/C (dose: 200.0 mg/kg/injection, schedule: Q04DX003 (sc), vehicle: Klucel (hydroxypropylcellulose) (HPC)) read?
Its T/C is 37 % of control.

What about the T/C (dose: 400.0 mg/kg/injection, schedule: Q04DX003 (sc), vehicle: Klucel (hydroxypropylcellulose) (HPC)) of the same compound?
Its T/C is 47 % of control.

And the T/C (dose: 800.0 mg/kg/injection, schedule: Q04DX003 (sc), vehicle: Klucel (hydroxypropylcellulose) (HPC))?
Its T/C is 37 % of control.

And the T/C (dose: 1600.0 mg/kg/injection, schedule: Q04DX003 (sc), vehicle: Klucel (hydroxypropylcellulose) (HPC))?
The T/C was 19 % of control.

For O=C1c2ccccc2C(=O)c2c1cn1c2Cc2ccccc2C1, which T/C (dose: 50.0 mg/kg/injection, schedule: Q04DX003 (ip), vehicle: Klucel (hydroxypropylcellulose) (HPC)) is on record?
The T/C was 72 % of control.

What about the T/C [5] of the same compound?
The T/C was 37 % of control.

And the T/C [3]?
The T/C was 26 % of control.

And the T/C [4]?
Its T/C is 35 % of control.

Which results are given for O=c1n(CC2CO2)c(=O)n(CC2CO2)n1CC1CO1 (stereo not given)?
T/C (dose: 9.38 mg/kg/injection, schedule: Q04DX003 (sc), vehicle: suspension in saline): 46 % of control; T/C (dose: 18.75 mg/kg/injection, schedule: Q04DX003 (sc), vehicle: suspension in saline): 20 % of control; T/C (dose: 37.5 mg/kg/injection, schedule: Q04DX003 (sc), vehicle: suspension in saline): 12 % of control

What does the source list for COc1cc2cc(c1Cl)N(C)C(=O)C[C@H](OC(=O)[C@H](C)N(C)C(C)=O)[C@]1(C)O[C@H]1[C@H](C)[C@@H]1C[C@@](O)(NC(=O)O1)[C@H](OC)C=C/C=C(\C)C2?
T/C (dose: 12.5 micrograms/kg/injection, schedule: Q01DX010 (sc), vehicle: Klucel (hydroxypropylcellulose) (HPC)): 152 % of control; T/C (dose: 25.0 micrograms/kg/injection, schedule: Q01DX010 (sc), vehicle: Klucel (hydroxypropylcellulose) (HPC)): 73 % of control; T/C (dose: 50.0 micrograms/kg/injection, schedule: Q01DX010 (sc), vehicle: Klucel (hydroxypropylcellulose) (HPC)): 75 % of control; T/C (dose: 100.0 micrograms/kg/injection, schedule: Q01DX010 (sc), vehicle: Klucel (hydroxypropylcellulose) (HPC)): 14 % of control; T/C (dose: 200.0 micrograms/kg/injection, schedule: Q01DX010 (sc), vehicle: Klucel (hydroxypropylcellulose) (HPC)): -78 % of control

What does the source list for CCCCNP1(NCCCC)=NP(NCCCC)(NCCCC)=NP(NCCCC)(NCCCC)=NP(NCCCC)(NCCCC)=N1?
T/C [9]: 89 % of control; T/C (dose: 300.0 mg/kg/injection, schedule: Q04DX003 (ip), vehicle: saline with Tween-80): 73 % of control
